Laboratory results as given in patent US20220023316A1, “METHODS FOR THE TREATMENT OF DEPRESSION” (Praxis Precision Medicines, Inc., priority 2018, published 2022).

Key:
[1] = Safety and tolerability in healthy subjects (Cohorts 1-3); type: in vivo, human
Experimental: Blood and urine were obtained during each treatment period at designated times for PK and other analyses (see below). Standard safety assessments were measured during each treatment period.

[2] = Food Effect Cohort (Cohort 4) PK, single 30 mg dose fasted vs fed; settings: healthy subjects
Experimental: (§2) A Food Effect Cohort (Cohort 4) was conducted to assess the effect of food on the PK profile of a single dose of Compound 1 when administered to healthy subjects. The subjects of Cohort 4 were treated with 30 mg of Compound 1 QD.
(§3) Cohort 4 subjects received a single 30 mg dose of a Compound 1 suspension on Days 1 and 5. The Day 1 dose was administered after a minimum of 10 hour fasting. No additional fluid intake was allowed until 1 hour after drug administration. A standard meal was given at least 4 hours post-dose. The Day 5 dose was administered following a high-fat, high calorie meal. Participants remained at the clinical site for a total of 8 days to complete PK sampling after the second dose.
(§4) Plasma samples were analyzed to determine Compound 1 concentrations using a validated assay method. Pharmacokinetic variables (including but not limited to Cmax, Tmax and AUC(0-last)), were calculated using non-compartmental analysis. PK parameters for Compound 1 were derived from the plasma concentration data using non-compartmental analysis with Phoenix™ WinNonlin® v 8.0 (Pharsight Corporation, USA).
(§5) Urine (Cohort 4): No urine analysis was conducted in Cohort 4.

[3] = human, in vivo
Experimental: (§6) Healthy subjects aged 18 to 55 years were treated with an oral suspension of Compound 1 to study the safety, tolerability, pharmacokinetics and pharmacodynamics of Compound 1 in healthy subjects.
(§7) The study was a randomized, double-blind, placebo-controlled multiple escalating dose study comprised of 3 cohorts that each received an oral suspension. Each cohort consisted of two groups: one group treated with Compound 1 and another treated with placebo. In each cohort, the ratio of Compound 1-treated subjects to placebo-treated subjects was 3:1.
(§8) The Compound 1-treated subjects of Cohort 1 were treated with 15.0 mg of Compound 1 once per day (QD). The Compound 1-treated subjects of Cohort 2 were treated with 30.0 mg of Compound 1 QD. The Compound 1-treated subjects of Cohort 3 were treated with 60.0 mg of Compound 1 QD.
(§9) Patients in each cohort were treated with Compound 1 for 14 consecutive days, unless dosing was halted by the Safety Review Committee (SRC). The dosing of subjects in each of the cohorts was staggered with the decision to dose escalate based on SRC review of a minimum of 14 days of observation of safety and tolerability data and review of the available plasma PK data from the preceding cohort(s).
(§10) Compound 1 was administered under fasted conditions (no food or drink, except water, for at least 10 hours prior to dosing). Immediately after administration of Compound 1, the subject was be administered 240 mL water. No additional fluid intake was allowed until 1 hour after Compound 1 administration.
(§11) Cohort 1 subjects received a single 15.0 mg dose of a Compound 1 suspension on the morning of Days 1-14. Cohort 2 subjects received a single 30.0 mg dose of a Compound 1 suspension on the morning of Days 1-14. Cohort 3 subjects received a single 60.0 mg dose of a Compound 1 suspension on the morning of Days 1-14. For all cohorts, the last treatment was administered on the morning of Day 14.
(§12) PK parameters (e.g., Cmax, Tmax, T1/2, AUC, etc.) for healthy patients in each cohort was compared to assess the suitability of Compound 1 suspension for the treatment of MDD. Data were obtained from the blood plasma samples collected from each cohort according to the schedule provided.
as §4
(§13) Blood (Cohorts 1-3): For each cohort, blood samples were collected on Days 1, 2, 3, 4, 5, 6 and 14 at the following time points: Day 1 at pre-dose (0 hour), 0.25, 0.5, 0.75, 1, 1.5, 2, 2.5, 3, 4, 6, 8, 12, 16 h post-dose; Day 2 at pre-dose (24 h), Day 3 at pre-dose (48 h), Day 4 at pre-dose (72 h), Day 5 at pre-dose (96 h), Day 6 at pre-dose (120 h); Day 14 at pre-dose 0.25, 0.5, 0.75, 1, 1.5, 2, 2.5, 3, 4, 6, 8, 12, 16, 24, 36, 48, and 72 hours. Trough level blood samples were collected on Days 2, 3, 4, 5, 6 and 14, prior to the morning dose administrations.
(§14) Descriptive statistics were calculated for plasma and urine PK parameter and concentration data, and summarized by study day and time point. Arithmetic means, coefficient of variation (CV), standard deviation, median, minimum, and maximum values, and number of observations were calculated for all PK parameters and trough concentration data. Except for Tmax, the geometric mean, geometric standard deviation, and geometric CV were provided for all PK parameter and concentration data.

[4] = Multiple escalating dose PK study of oral suspension in healthy subjects (Cohorts 1-3); settings: for t1/2: Day 14 steady state
Experimental: as §6, §7, §8, §9, §10, §11, §12, §4, §13, §14

[5] = test system: severe major depressive disorder (MDD); assay: Open-label study in patients with severe MDD, Part A efficacy (HAM-D); type: in vivo, human
Experimental: The study is an open-label, study comprised of two dosing periods, Part A and Part B, during which patients were treated with an oral suspension of Compound 1. Part A was an open-label assessment of two dose levels of Compound 1 (45 mg qHS Cohort 1 and 80 mg qHS Cohort, i.e., once daily administration at bedtime) administered for 7 days inpatient followed by 7 days outpatient. PRAX-114 was administered at 4 PM on Day 1 in order to collect post-dosing PK samples that could not be collected with qHS dosing.
(§1) In Part A, participants were administered daily doses of Compound 1 (45 mg Cohort and 80 mg Cohort) at 4 PM on Day 1 and qHS on all other study days for 7 days inpatient followed by 7 days outpatient (with subsequent Cohorts receiving up to 120 mg qHS). Participants checked into the clinic on Day 1. During this period the following assessments were performed: adverse event assessments, vital signs, physical examinations, blood and urine samples for safety assessments, ECGs, C-SSRS assessments, blood samples for PK, and efficacy assessments (HAM-D, MADRS, HAM-A, CGI [CGI-S and CGI-I], PSQI, and SDQ). Baseline assessments occurred on Day 1 prior to administration of study drug. On Day 8, prior to discharge, participants were supplied with sufficient Compound 1 to complete 7 days of dosing.
Patients were administered daily doses of Compound 1 for 7 days inpatient followed by 7 days outpatient.
In the 45 mg Cohort, patients were administered once daily dose of 45 mg of Compound 1 at bedtime for 7 days inpatient followed by once daily dose of 45 mg of Compound 1 at bedtime for 7 days outpatient.
In the 80 mg Cohort, patients were administered once daily dose of 80 mg of Compound 1 at bedtime for 7 days inpatient followed by once daily dose of 80 mg of Compound 1 at bedtime for 7 days outpatient.
Part A: In Part A, HAM-D, MADRS, HAM-A, CGI-S, and CGI-I values were collected in the morning of Days 1, 2, 3, 4, 5, 6, 7, 8, 15, 21 and 28. PSQI and SDQ values will be collected on Days 1, 8, 15, 21 and 28. Part B: In Part B, HAM-D, MADRS, HAM-A, CGI-S, CGI-I, PSQI and SDQ values will be collected on the days described for Part A.
HAM-D Response was defined as a reduction from baseline of >50% in total HAM-D score. HAM-D remission was defined as a total HAM-D score of <7.
Efficacy analysis: For both parts of the clinical trial, the HAM-D total score and change from baseline values will be summarized by treatment group and time point. In addition, the change from baseline in HAM-D total score will also be analyzed using paired t-tests or similar methods. The null hypothesis of this test is that the mean difference in HAM-D total score between paired observations (i.e., pre- and post-treatment) is zero. Similar analysis methods will be used for all secondary and exploratory efficacy variables.

[6] = human, in vivo, 30 mg
Experimental: as §2, §3, §4, §5

[7] = Safety and tolerability in MDD patients, Part A; type: in vivo, human; settings: 80 mg Cohort
Experimental: as §1
Adverse events (AEs) will be monitored throughout the duration of the study.

[8] = Cohorts 1-3, 15-60 mg QD for 14 days

**Q.** Which results are given for `COC[C@@]1(O)CC[C@@]2(C)[C@@H](CC[C@@H]3[C@@H]2CC[C@]2(C)[C@@H](C(=O)Cn4ccnc4)CC[C@@H]32)C1` [Compound 1, 3α-Hydroxy-3β-methoxymethyl-21-(1′-imidazolyl)-5α-pregnan-20-one]?
**A.** Serious Adverse Events [1, 8]: no Serious Adverse Events; clinically relevant vital sign, ECG, or lab abnormalities [1, 8]: no clinically relevant vital sign, ECG, or lab abnormalities; elevated mood ([1]; doses of 30 mg and 60 mg QD): several subjects experienced elevated mood; t1/2 ([2]; Fed (Day 1) n =10 as head prints, single 30 mg oral suspension after high-fat, high calorie meal, Mean (SD)): 11.26 (0.8641) h; t1/2 fasted versus fed ([2]; single 30 mg dose): similar; increase in Cavg, AUCss and AUCinf with dose [3]: proportional increase; increase in Cmax and AUC parameters at steady state with dose [3]: approximate proportional increase; t1/2 ([4]; Cohort 1, 15.0 mg QD oral suspension, Geo Mean): 14.613 h; t1/2 ([4]; Cohort 1, 15.0 mg QD oral suspension, Mean): 14.77 ± 2.26 h; t1/2 ([4]; Cohort 1, 15.0 mg QD oral suspension, Median): 15.26 h; t1/2 ([4]; Cohort 2, 30.0 mg QD oral suspension, Geo Mean): 12.647 h; t1/2 ([4]; Cohort 2, 30.0 mg QD oral suspension, Mean): 12.70 ± 1.23 h; t1/2 ([4]; Cohort 2, 30.0 mg QD oral suspension, Median): 12.90 h; Cmax ([4]; Cohort 2, 30.0 mg QD oral suspension, fasted, Day 1, Geometric Mean): 120.018 ng/mL; accumulation factor of the dosing interval (ratio of AUCDay14/AUCDay1) ([4]; Cohort 3, 60.0 mg QD): 0.89; t1/2 ([4]; Cohort 3, 60.0 mg QD oral suspension, Geo Mean): 12.164 h; t1/2 ([4]; Cohort 3, 60.0 mg QD oral suspension, Mean): 12.23 ± 1.32 h; t1/2 ([4]; Cohort 3, 60.0 mg QD oral suspension, Median): 12.42 h; patients meeting HAM-D Response or Remission criterion ([5]; 45 mg Cohort (45 mg qHS), Day 7, 13 patients): 11 of the 13; patients meeting HAM-D Response or Remission criteria ([5]; 45 mg Cohort (45 mg qHS), Day 15, 13 patients): 8 of the 13; least squares Mean Change from Baseline in HAM-D score ([5]; 80 mg Cohort (80 mg qHS), Day 7): −20.0; least squares Mean Change from Baseline in HAM-D score ([5]; 80 mg Cohort (80 mg qHS), Day 15): −16.0; patients meeting HAM-D Response or Remission criteria ([5]; 80 mg Cohort (80 mg qHS), Day 15, 7 patients): 6 of the 7; Efficacy (reduction Mean Change from Baseline in HAM-D score) ([5]; as monotherapy and in combination with another antidepressant): observed; symptoms of MDD ([5]; daily dose of 45 mg or 80 mg, oral suspension, MDD patients): reduced symptoms of moderate to severe MDD; Efficacy (reduction Mean Change from Baseline in HAM-D score) ([5]; patients undergoing first course of antidepressant treatment and patients that failed previous courses): observed; Cmax higher under fasting conditions compared to fed [6]: 1.5-1.6 times; Tmax under fasting compared to fed conditions [6]: tendency for a shorter Tmax; AUCinf ([6]; po): 602.3 (304.84) h · ng/mL; Adverse Event profile compared to the 45 mg Cohort [7]: no change in Adverse Event profile; tolerability of the dose [7]: well tolerated
